Assay results published in patent US6949561B1, “Steroid 3-O-sulphamate derivatives as inhibitors of oestrone sulphatase” (Sterix Limited, priority 1997, dated 2005).

Tests used:
[1] = target: T1, Steroid sulphatase (Steryl Sulphatase EC 3.1.6.2; E1-STS) in intact MCF-7 human breast cancer cells (Homo sapiens, UniProt P08842); conditions: 0.1 μM; known from prior art; cited from earlier work
T1 construct: endogenous in cells; host or cells: MCF-7 human breast cancer cells
T1 sequence (P08842 22-583): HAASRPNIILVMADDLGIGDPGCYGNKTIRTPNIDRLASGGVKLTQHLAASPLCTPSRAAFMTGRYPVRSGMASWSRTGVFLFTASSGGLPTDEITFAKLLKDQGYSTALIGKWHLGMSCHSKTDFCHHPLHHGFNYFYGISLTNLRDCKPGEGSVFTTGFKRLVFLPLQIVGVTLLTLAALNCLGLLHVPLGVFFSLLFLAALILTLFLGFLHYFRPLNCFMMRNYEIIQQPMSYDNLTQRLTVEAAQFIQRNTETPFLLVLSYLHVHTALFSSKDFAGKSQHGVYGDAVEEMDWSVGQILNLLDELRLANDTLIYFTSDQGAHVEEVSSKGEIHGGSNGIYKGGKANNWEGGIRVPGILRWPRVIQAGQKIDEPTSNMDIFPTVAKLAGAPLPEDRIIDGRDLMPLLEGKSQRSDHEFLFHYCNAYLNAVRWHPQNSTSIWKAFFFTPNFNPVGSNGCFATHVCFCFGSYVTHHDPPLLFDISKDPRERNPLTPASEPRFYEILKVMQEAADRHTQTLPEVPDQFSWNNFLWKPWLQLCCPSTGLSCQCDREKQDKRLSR

[2] = target: T2, Rat Liver Sulphatase (E1-STS) (Rattus norvegicus, UniProt P15589); conditions: administered either orally or subcutaneously; prior art; cited from earlier work
T2 construct: from tissue; host or cells: rat liver after oral dosing
T2 sequence (P15589 20-577): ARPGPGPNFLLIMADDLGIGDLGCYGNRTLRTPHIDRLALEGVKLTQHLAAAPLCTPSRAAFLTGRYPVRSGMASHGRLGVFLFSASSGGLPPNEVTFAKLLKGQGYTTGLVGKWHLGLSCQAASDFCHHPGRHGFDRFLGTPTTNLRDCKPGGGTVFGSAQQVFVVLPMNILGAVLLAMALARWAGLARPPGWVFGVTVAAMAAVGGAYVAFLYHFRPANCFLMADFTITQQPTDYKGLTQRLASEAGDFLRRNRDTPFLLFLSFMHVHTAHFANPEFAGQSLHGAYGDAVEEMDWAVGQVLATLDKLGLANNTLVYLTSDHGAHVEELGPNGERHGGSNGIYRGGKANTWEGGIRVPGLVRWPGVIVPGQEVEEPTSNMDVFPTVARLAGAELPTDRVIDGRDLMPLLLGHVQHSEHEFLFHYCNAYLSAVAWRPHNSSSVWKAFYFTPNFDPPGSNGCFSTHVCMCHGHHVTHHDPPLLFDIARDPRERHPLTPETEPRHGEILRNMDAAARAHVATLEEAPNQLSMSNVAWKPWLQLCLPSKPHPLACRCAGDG

[3] = target: T3, dehydroepiandrosterone sulphatase (DHA-STS) (Rattus norvegicus, UniProt P15589); conditions: administered either orally or subcutaneously; prior art; cited from earlier work
T3 construct: host or cells: rat liver (in vivo dosing)
T3 sequence (P15589 20-577): T2 sequence (P15589 20-577)

[4] = target: T2, Rat Liver Sulphatase (E1-STS); assay: In vivo inhibition (rat liver sulphatase); conditions: 2 mg/Kg/day × 5 days, oral dose
memory = conditions: rats; prior art; cited from earlier work
E1-STS enzyme = target: T4, E1-STS enzyme (Homo sapiens, UniProt P08842); conditions: prior art; cited from earlier work
T4 sequence (P08842 22-583): T1 sequence (P08842 22-583)

[5] = cited from earlier work

Molecule: CC12CCC3c4ccc(OS(N)(=O)=O)cc4CCC3C1CCC2=O (stereo not drawn) [EMATE, oestrone-3-sulphamate]
- inhibition of E1-STS activity in intact MCF-7 cells [1]: more than 99%
- inhibition of rat liver E1-STS activity [2]: 99%
- inhibition of rat liver DHA-STS activity [3]: 99%
- In Vivo Inhibition (Rat Liver Sulphatase) [4]: 99.1±0.2%
- memory enhancing effect (memory): memory enhancing effect
- mode of E1-STS inhibition (E1-STS enzyme): time- and concentration-dependent manner

Molecule: oestrone-3-S-sulphamate
- mode of E1-STS inhibition (E1-STS enzyme): weaker non-time-dependent inactivators

Molecule: C[C@]12CC[C@@H]3c4ccc(OS(=O)(=O)O)cc4CC[C@H]3[C@@H]1CCC2=O [Compound E1S, oestrone sulphate]
- half-life in blood [5]: 10 to 12 h

Molecule: oestrone-3-N-sulphamate
- mode of E1-STS inhibition (E1-STS enzyme): weaker non-time-dependent inactivators
